A word on the EC50: it is the concentration that produces a half-maximal response.

27 compounds from patent US20240067631A1, “PYRAZOLE DERIVATIVES USEFUL AS NAMPT MODULATORS” (Cytokinetics, Inc., priority 2020, published 2024) can be followed below.

For this assay, the target named is human NAMPT (Homo sapiens (Human), UniProt P43490). Description: Human recombinant enzyme assay (NMN fluorescence biochemical assay). The conditions noted are these: 6 nM human NAMPT, 60 min; for AC1.4 Human: concentration of compound that generates 40% higher activity over basal; for EC50: concentration that gives half-maximal activation. The procedure: Compounds described herein were assayed for their ability to stimulate the synthesis of nicotinamide mononucleotide (NMN) by the enzyme NAMPT. The human recombinant enzyme assay measures the activation of the enzyme activity by compounds using recombinant enzyme and substrates in a buffered cell-free system. The assay conditions closely mimic cellular environments. Dose responses were measured using an assay to detect the formation of nicotinamide mono-nucleotide. All experiments were performed in the 384-well format. Generally, 0.5 μL of DMSO containing varying concentrations of the test compound was mixed with 10 μL of the enzyme reagent solution. Enzyme reactions were initiated with the addition of 10 μL of a solution containing the substrates. The final assay conditions were as follows: 6 nM human NAMPT, 2.5 mM ATP, […] in 50 mM HEPES, pH 7.2, 1 mM DTT, 1 mM CHAPS 50 mM NaCl, 100 mM MgCl2. Following an incubation of 60 min at ambient temperature, 10 μL of 20% acetophenone in DMSO was added, followed by 10 μL of 2 M KOH and 40 μL of formic acid. The plates were read for fluorescence (Excitation/Emission=355 nm/460 nm) using an EnVision plate reader after 40 mins of incubation at ambient temperature. The potency measurements for compounds, are quantified and represented as AC1.4 (the concentration of compounds that generates 40% higher activity over basal) and EC50 (concentration of the compound that gives half-maximal activation).
human NAMPT, sequence (P43490 whole entry): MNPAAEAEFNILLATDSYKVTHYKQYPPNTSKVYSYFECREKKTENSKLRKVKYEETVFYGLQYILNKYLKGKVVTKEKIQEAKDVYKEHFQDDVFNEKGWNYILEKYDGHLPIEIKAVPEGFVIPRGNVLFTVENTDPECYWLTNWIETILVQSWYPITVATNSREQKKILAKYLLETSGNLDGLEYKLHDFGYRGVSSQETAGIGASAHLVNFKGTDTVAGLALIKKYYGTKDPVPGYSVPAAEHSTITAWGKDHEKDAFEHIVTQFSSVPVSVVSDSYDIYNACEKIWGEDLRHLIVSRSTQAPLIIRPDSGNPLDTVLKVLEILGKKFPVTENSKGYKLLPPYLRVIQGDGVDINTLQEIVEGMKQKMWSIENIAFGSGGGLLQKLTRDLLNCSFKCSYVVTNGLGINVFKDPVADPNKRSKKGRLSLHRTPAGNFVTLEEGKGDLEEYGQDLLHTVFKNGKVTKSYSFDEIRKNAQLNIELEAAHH

Consider `Cc1nc(C(=O)NC(C)c2ccc(Cl)s2)nc(NCCc2cn[nH]c2)c1C` (stereo not drawn) [Compound 70, 4-((2-(1H-pyrazol-4-yl)ethyl)amino)-N-(1-(5-chlorothiophen-2-yl)ethyl)-5,6-dimethylpyrimidine-2-carboxamide], for which the “AC1.4 Human” value turned out to be 0.5795 µM and the EC50 is 3.12 µM.

With `Cc1nc(C(=O)NC2(c3ccccc3)COC2)nc(NCCc2cn[nH]c2)c1C` [Compound 114, 4-((2-(1H-pyrazol-4-yl)ethyl)amino)-5,6-dimethyl-N-(3-phenyloxetan-3-yl)pyrimidine-2-carboxamide], the “AC1.4 Human” value came to 2.1125 µM and the EC50 was 23.1 µM.

Regarding `Cc1nc(C(=O)N[C@H](C)c2cccnc2)nc(NCCc2cn[nH]c2)c1C` [Compound 127, (R)-4-((2-(1H-pyrazol-4-yl)ethyl)amino)-5,6-dimethyl-N-(1-(pyridin-3-yl)ethyl)pyrimidine-2-carboxamide], the “AC1.4 Human” value amounted to 32.9385 µM and the concentration giving a half-maximal response (EC50) is 60 µM.

As for `Cc1nc(C(=O)NC2(Cc3ccc(F)cc3Cl)CCOCC2)nc(NCCc2cn[nH]c2)c1C` [Compound 85, 4-((2-(1H-pyrazol-4-yl)ethyl)amino)-N-(4-(2-chloro-4-fluorobenzyl)tetrahydro-2H-pyran-4-yl)-5,6-dimethylpyrimidine-2-carboxamide], the “AC1.4 Human” value is 1.072 µM and the concentration giving a half-maximal response (EC50) is 8.35 µM.

In the case of `Cc1nc(C(=O)N[C@@H](C)c2ccccc2)nc(NCCc2cn[nH]c2)c1C` [Compound 59, (S)-4-((2-(1H-pyrazol-4-yl)ethyl)amino)-5,6-dimethyl-N-(1-phenylethyl)pyrimidine-2-carboxamide], the “AC1.4 Human” value amounted to 0.4045 µM and the concentration giving a half-maximal response (EC50) was found to be 3.08 µM.

As to `Cc1nc(C(=O)Nc2ccncc2F)nc(NCCc2cn[nH]c2)c1C` [Compound 144, 4-((2-(1H-pyrazol-4-yl)ethyl)amino)-N-(3-fluoropyridin-4-yl)-5,6-dimethylpyrimidine-2-carboxamide], the “AC1.4 Human” value turned out to be 4.755 µM and the EC50 was 18.4 µM.

Consider `Cc1nc(C(=O)N2CCOCC2(C)c2ccccc2)nc(NCCc2cn[nH]c2)c1C` (stereo not drawn) [Compound 25, (4-((2-(1H-pyrazol-4-yl)ethyl)amino)-5,6-dimethylpyrimidin-2-yl)(3-methyl-3-phenylmorpholino)methanone], for which the “AC1.4 Human” value was 0.106 µM and the 50% effective concentration (EC50) worked out at 0.872 µM.

On to `Cc1nc(C(=O)N2CC(O)(c3ccccc3)C2)nc(N2CC[C@@H](c3cn[nH]c3)C2)c1C` (single isomer, unassigned) [Compound 9], for which the “AC1.4 Human” value came to 0.044 µM and the EC50 was 0.633 µM.

For `Cc1nc(C(=O)NCC(O)(c2ccccc2)C(F)(F)F)nc(NCCc2cn[nH]c2)c1C` (stereo not drawn) [Compound 122, 4-((2-(1H-pyrazol-4-yl)ethyl)amino)-5,6-dimethyl-N-(3,3,3-trifluoro-2-hydroxy-2-phenylpropyl)pyrimidine-2-carboxamide], the “AC1.4 Human” value stood at 2.574 µM and the half-maximal effective concentration (EC50) is 16.7 µM.

Turning to `Cc1nc(C(=O)N2CC(O)(C3CC3)C2)nc(NCCc2cn[nH]c2)c1C` [Compound 97, (4-((2-(1H-pyrazol-4 yl)ethyl)amino)-5,6-dimethylpyrimidin-2-yl)(3-cyclopropyl-3-hydroxyazetidin-1-yl)methanone], the “AC1.4 Human” value was determined as 6.337 µM and the EC50 came to 22.3 µM.

With `Cc1nc(C(=O)N[C@H](C)c2ncccc2F)nc(NCCc2cn[nH]c2)c1C` [Compound 56, (R)-4-((2-(1H-pyrazol-4-yl)ethyl)amino)-N-(1-(3-fluoropyridin-2-yl)ethyl)-5,6-dimethylpyrimidine-2-carboxamide], the “AC1.4 Human” value is 0.439 µM and the EC50 stood at 1.37 µM.

Turning to `Cc1nc(C(=O)N[C@H](C)C2CCCCC2)nc(NCCc2cn[nH]c2)c1C` [Compound 116, (R)-4-((2-(1H-pyrazol-4-yl)ethyl)amino)-N-(1-cyclohexylethyl)-5,6-dimethylpyrimidine-2-carboxamide], the “AC1.4 Human” value was found to be 2.9705 µM and the EC50 was determined as 29.6 µM.

For `Cc1nc(C(=O)N2C[C@@H](C)OC[C@H]2c2ccccc2)nc(NCCc2cn[nH]c2)c1C` [Compound 62, (4-((2-(1H-pyrazol-4-yl)ethyl)amino)-5,6-dimethylpyrimidin-2-yl)((2R,5R)-2-methyl-5-phenylmorpholino)methanone], the “AC1.4 Human” value was 0.4295 µM and the EC50 came to 3.21 µM.

On to `Cc1nc(C(=O)NCC(F)(F)c2ccccc2)nc(NCCc2cn[nH]c2)c1C` [Compound 111, 4-((2-(1H-pyrazol-4-yl)ethyl)amino)-N-(2,2-difluoro-2-phenylethyl)-5,6-dimethylpyrimidine-2-carboxamide], for which the “AC1.4 Human” value was 1.9995 µM and the half-maximal effective concentration (EC50) was 18.5 µM.

Turning to `Cc1nc(C(=O)NCc2ccccc2)nc(NCCc2cn[nH]c2)c1C` [Compound 31, 4-((2-(1H-pyrazol-4-yl)ethyl)amino)-N-benzyl-5,6-dimethylpyrimidine-2-carboxamide], the “AC1.4 Human” value was determined as 0.192 µM and the EC50 was determined as 1.61 µM.

In the case of `Cc1nc(C(=O)N2CC(CO)(c3ccccc3)C2)nc(NCCc2cn[nH]c2)c1C` [Compound 84, (4-((2-(1H-pyrazol-4-yl)ethyl)amino)-5,6-dimethylpyrimidin-2-yl)(3-(hydroxymethyl)-3-phenylazetidin-1-yl)methanone], the “AC1.4 Human” value is 31.857 µM and the EC50 was 40.2 µM.

Take `Cc1nc(C(=O)N(C)[C@@H](C)c2ccccc2Cl)nc(NCCc2cn[nH]c2)c1C` [Compound 29, (S)-4-((2-(1H-pyrazol-4-yl)ethyl)amino)-N-(1-(2-chlorophenyl)ethyl)-N,5,6-trimethylpyrimidine-2-carboxamide]: the “AC1.4 Human” value is 0.1725 µM and the 50% effective concentration (EC50) was 1.87 µM.

On to `Cc1nc(C(=O)N[C@@H](C)c2ccncc2)nc(NCCc2cn[nH]c2)c1C` [Compound 87, (S)-4-((2-(1H-pyrazol-4-yl)ethyl)amino)-5,6-dimethyl-N-(1-(pyridin-4-yl)ethyl)pyrimidine-2-carboxamide], for which the “AC1.4 Human” value amounted to 1.1375 µM and the EC50 worked out at 13.3 µM.

In the case of `Cc1nc(C(=O)NC(C)c2ncco2)nc(NCCc2cn[nH]c2)c1C` (stereo not drawn) [Compound 108, 4-((2-(1H-pyrazol-4-yl)ethyl)amino)-5,6-dimethyl-N-(1-(oxazol-2-yl)ethyl)pyrimidine-2-carboxamide], the “AC1.4 Human” value is 1.7855 µM and the EC50 worked out at 18.1 µM.

As to `Cc1nc(C(=O)N2CC(C)(O)C2)nc(NCCc2cn[nH]c2)c1C` [Compound 125, (4-((2-(1H-pyrazol-4-yl)ethyl)amino)-5,6-dimethylpyrimidin-2-yl)(3-hydroxy-3-methylazetidin-1-yl)methanone], the “AC1.4 Human” value came to 4.313 µM and the EC50 was found to be 22 µM.

`Cc1nc(C(=O)NCc2coc3ccccc23)nc(NCCc2cn[nH]c2)c1C` [Compound 58, 4-((2-(1H-pyrazol-4-yl)ethyl)amino)-N-(benzofuran-3-ylmethyl)-5,6-dimethylpyrimidine-2-carboxamide]: the “AC1.4 Human” value turned out to be 0.406 µM and the EC50 came out at 0.788 µM.

Regarding `Cc1nc(C(=O)N[C@H](C)c2coc3ccccc23)nc(NCCc2cn[nH]c2)c1C` [Compound 65, (R)-4-((2-(1H-pyrazol-4-yl)ethyl)amino)-N-(1-(benzofuran-3-yl)ethyl)-5,6-dimethylpyrimidine-2-carboxamide], the “AC1.4 Human” value was found to be 0.4805 µM and the 50% effective concentration (EC50) came to 1.69 µM.

With `Cc1nc(C(=O)N2CC(C(F)(F)F)C2)nc(NCCc2cn[nH]c2)c1C` [Compound 100, (4-((2-(1H-pyrazol-4-yl)ethyl)amino)-5,6-dimethylpyrimidin-2-yl)(3-(trifluoromethyl)azetidin-1-yl)methanone], the “AC1.4 Human” value is 6.3085 µM and the EC50 stood at 40.2 µM.

As to `Cc1nc(C(=O)NC(c2cccnc2)C(F)(F)F)nc(NCCc2cn[nH]c2)c1C` (stereo not drawn) [Compound 136, 4-((2-(1H-pyrazol-4-yl)ethyl)amino)-5,6-dimethyl-N-(2,2,2-trifluoro-1-(pyridin-3-yl)ethyl)pyrimidine-2-carboxamide], the “AC1.4 Human” value came out at 3.778 µM and the half-maximal effective concentration (EC50) was 50.2 µM.

With `COC[C@@H](NC(=O)c1nc(C)c(C)c(NCCc2cn[nH]c2)n1)c1cccc(F)c1` [Compound 82, (S)-4-((2-(1H-pyrazol-4-yl)ethyl)amino)-N-(1-(3-fluorophenyl)-2-methoxyethyl)-5,6-dimethylpyrimidine-2-carboxamide], the “AC1.4 Human” value is 0.966 µM and the 50% effective concentration (EC50) is 3.99 µM.

`Cc1nc(C(=O)N2CCC2c2ccccc2)nc(NCCc2cn[nH]c2)c1C` (stereo not drawn) [Compound 132, (4-((2-(1H-pyrazol-4-yl)ethyl)amino)-5,6-dimethylpyrimidin-2-yl)(2-phenylazetidin-1-yl)methanone]: the “AC1.4 Human” value was determined as 3.5055 µM and the EC50 is 13.1 µM.

On to `Cc1nc(C(=O)NCC2(c3ccccc3)COC2)nc(NCCc2cn[nH]c2)c1C` [Compound 94, 4-((2-(1H-pyrazol-4-yl)ethyl)amino)-5,6-dimethyl-N-((3-phenyloxetan-3-yl)methyl)pyrimidine-2-carboxamide], for which the “AC1.4 Human” value is 1.271 µM and the EC50 amounted to 8.13 µM.
